Assay results as given in the NIST ThermoML archive (doi:10.1021/je3012925).
± gives the expanded uncertainty stated by the source.

How the values were obtained:
[1] = refractive index (Na D-line) (dimensionless); details: 293.15 K; 101.33 kPa; Liquid; Standard Abbe refractometry
[2] = Liquid; for mass density: 293.15 K, 101.33 kPa, Vibrating tube method; for Normal boiling temperature: mercury-in-glass thermometers

`CN(C)C=O` [dimethylformamide] gave a refractive index [1] of 1.4328 ± 0.0007, a mass density [2] of 942.6 ± 0.3 kg/m3 and a Normal boiling temperature [2] of 153.06 ± 0.2 °C.
Work on `CCC(C)CO` (centres undefined) [2-methyl-1-butanol] yielded a refractive index [1] of 1.4096 ± 0.0007, a mass density [2] of 817.6 ± 0.2 kg/m3 and a Normal boiling temperature [2] of 128.12 ± 0.2 °C.
With `CCC(C)COC(C)=O` (centres undefined) [2-methylbutyl ethanoate] the refractive index [1] was 1.4034 ± 0.0007, the mass density [2] was 873.5 ± 0.3 kg/m3 and the Normal boiling temperature [2] was 138.23 ± 0.2 °C.
